Test results taken from PubChem BioAssay AID256 (DTP/NCI, 2004).
“And” between values parts separate entries of the source, which are not always exact repeats. Identical values can stand only once. Toxic doses and inconclusive results are not listed. How the source made its calls: active means survival T/C of 150% or more; inactive means T/C below 125% in these data.

Test system: CD2F1 mice, L1210 leukemia ip, survival T/C
Experiment: NCI In Vivo Anticancer Drug Screen. Data for tumor model L1210 Leukemia (intraperitoneal) in CD2F1 (CDF1) mice
Details: higher = longer survival
Outline: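 Activity against a transplanted murine tumor was judged by comparing the compound group with a vehicle group. The outcome in the treated animals was divided by that in the controls.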

[1] = endpoint: mean survival time, dose: 100.0 mg/kg/injection, schedule: Q04DX003 (ip), vehicle: saline with Tween-80
[2] = endpoint: mean survival time, dose: 200.0 mg/kg/injection, schedule: Q04DX003 (ip), vehicle: saline with Tween-80
[3] = endpoint: mean survival time, dose: 400.0 mg/kg/injection, schedule: Q04DX003 (ip), vehicle: saline with Tween-80
[4] = endpoint: mean survival time, dose: 100.0 mg/kg/injection, schedule: Q01DX009 (ip), vehicle: saline with Tween-80
[5] = endpoint: mean survival time, dose: 200.0 mg/kg/injection, schedule: Q01DX009 (ip), vehicle: saline with Tween-80
[6] = endpoint: mean survival time, dose: 50.0 mg/kg/injection, schedule: Q01DX009 (ip), vehicle: saline with Tween-80
[7] = endpoint: mean survival time, dose: 400.0 mg/kg/injection, schedule: Q01DX009 (ip), vehicle: saline with Tween-80
[8] = endpoint: mean survival time, dose: 100.0 mg/kg/injection, schedule: Q01DX001 (ip), vehicle: saline with Tween-80
[9] = endpoint: mean survival time, dose: 100.0 mg/kg/injection, schedule: Q04DX002 (ip), vehicle: saline with Tween-80
[10] = endpoint: mean survival time, dose: 200.0 mg/kg/injection, schedule: Q01DX001 (ip), vehicle: saline with Tween-80
[11] = endpoint: mean survival time, dose: 200.0 mg/kg/injection, schedule: Q04DX002 (ip), vehicle: saline with Tween-80
[12] = endpoint: mean survival time, dose: 400.0 mg/kg/injection, schedule: Q01DX001 (ip), vehicle: saline with Tween-80
[13] = endpoint: mean survival time, dose: 100.0 mg/kg/injection, schedule: Q01DX001 (ip), vehicle: saline sonified
[14] = endpoint: mean survival time, dose: 50.0 mg/kg/injection, schedule: Q01DX009 (ip), vehicle: Klucel (hydroxypropylcellulose) (HPC)
[15] = endpoint: mean survival time, dose: 100.0 mg/kg/injection, schedule: Q01DX009 (ip), vehicle: Klucel (hydroxypropylcellulose) (HPC)
[16] = endpoint: mean survival time, dose: 50.0 mg/kg/injection, schedule: Q01DX001 (ip), vehicle: saline sonified

Measured: T/C

CC1C(C(=O)c2ccccc2)C(c2ccccc2)OP1(c1ccccc1)(c1ccccc1)c1ccccc1 (stereo not given)
inactive: endpoint: mean survival time, dose: 6.25 mg/kg/injection, schedule: Q01DX001 (ip), vehicle: saline with Tween-80 97 % of control | endpoint: mean survival time, dose: 12.5 mg/kg/injection, schedule: Q01DX001 (ip), vehicle: saline with Tween-80 96 % of control | endpoint: mean survival time, dose: 25.0 mg/kg/injection, schedule: Q01DX001 (ip), vehicle: saline with Tween-80 105 % of control

CCN(CC)C(=O)/C=C/c1ccccc1
inactive: [1] 103 % of control | [2] 101 % of control | [3] 103 % of control

O=S(=O)(c1ccc(Cl)cc1)c1ccc(Cl)cc1
inactive: endpoint: mean survival time, dose: 100.0 mg/kg/injection, schedule: Q01DX001 (ip), vehicle: Klucel (hydroxypropylcellulose) (HPC) 93 % of control | endpoint: mean survival time, dose: 200.0 mg/kg/injection, schedule: Q01DX001 (ip), vehicle: Klucel (hydroxypropylcellulose) (HPC) 90 % of control | endpoint: mean survival time, dose: 400.0 mg/kg/injection, schedule: Q01DX001 (ip), vehicle: Klucel (hydroxypropylcellulose) (HPC) 96 % of control

CCCCCCCCCCCCCCCCOc1ccc(-c2cc(Cl)c3cc(S(=O)(=O)F)ccc3n2)cc1S(=O)(=O)F
inactive: [4] 97 % of control | [5] 98 % of control | [2] 87 % of control | [3] 95 % of control

CCCCOS(=O)(=O)c1ccc(Cl)c([N+](=O)[O-])c1
inactive: endpoint: mean survival time, dose: 25.0 mg/kg/injection, schedule: Q01DX009 (ip), vehicle: saline with Tween-80 102 % of control | [6] 100 % of control | [4] 91 % of control | [1] 96 % of control | [2] 98 % of control | [3] 91 % of control

COc1ccc2c(c1OC)C(=O)OC2c1cc(Br)c(O)c(C2OC(=O)c3c2ccc(OC)c3OC)c1 (stereo not given)
inactive: [4] 101 % of control | [1] 92 % of control | [5] 101 % of control | [2] 93 % of control | [7] 98 % of control | [3] 90 % of control

O=NN(CCCl)C(=S)Nc1ccccc1
inactive: endpoint: mean survival time, dose: 100.0 mg/kg/injection, schedule: Q01DX001 (ip), vehicle: other 98 % of control | endpoint: mean survival time, dose: 200.0 mg/kg/injection, schedule: Q01DX001 (ip), vehicle: other 98 % of control

CCOC(=O)c1ccc(NC(=S)NC(=O)c2cccc(Br)c2)cc1
inactive: [8] 101 % of control and 112 % of control | [4] 92 % of control and 98 % of control | [9] 93 % of control | [1] 96 % of control | [10] 97 % of control and 101 % of control | [5] 94 % of control and 95 % of control | [11] 95 % of control | [2] 98 % of control | [12] 101 % of control | [7] 97 % of control and 106 % of control | endpoint: mean survival time, dose: 400.0 mg/kg/injection, schedule: Q04DX002 (ip), vehicle: saline with Tween-80 96 % of control | [3] 93 % of control

CCCCCCCCCCCC(CCCCCCCCCC)CCCCCCCCCC
inactive: [13] 101 % of control | endpoint: mean survival time, dose: 200.0 mg/kg/injection, schedule: Q01DX001 (ip), vehicle: saline sonified 104 % of control | endpoint: mean survival time, dose: 400.0 mg/kg/injection, schedule: Q01DX001 (ip), vehicle: saline sonified 108 % of control

O=C1C2C3CC4C5C3C1C5C1(OCCO1)C42 (stereo not given)
inactive: endpoint: mean survival time, dose: 25.0 mg/kg/injection, schedule: Q04DX002 (ip), vehicle: saline with Tween-80 107 % of control | endpoint: mean survival time, dose: 50.0 mg/kg/injection, schedule: Q04DX002 (ip), vehicle: saline with Tween-80 107 % of control | [9] 100 % of control | [11] 107 % of control

CCOC(=O)/C=C/C1=CCCCC1
inactive: [6] 101 % of control | [4] 96 % of control | [5] 108 % of control

COC1=CC=C2[C@@H]3Cc4ccc(OC)c5c4[C@]2(CCN3CCO)C1O5 (stereo not given in full)
inactive: endpoint: mean survival time, dose: 25.0 mg/kg/injection, schedule: Q04DX003 (ip), vehicle: DMSO 94 % of control | endpoint: mean survival time, dose: 50.0 mg/kg/injection, schedule: Q04DX003 (ip), vehicle: DMSO 96 % of control | endpoint: mean survival time, dose: 100.0 mg/kg/injection, schedule: Q04DX003 (ip), vehicle: DMSO 94 % of control | endpoint: mean survival time, dose: 200.0 mg/kg/injection, schedule: Q04DX003 (ip), vehicle: DMSO 91 % of control | endpoint: mean survival time, dose: 400.0 mg/kg/injection, schedule: Q04DX003 (ip), vehicle: DMSO 105 % of control

CC1C(O)=C(c2ccccc2)P(=O)(Cc2ccccc2)C1C (stereo not given)
inactive: [14] 104 % of control | [15] 93 % of control | endpoint: mean survival time, dose: 200.0 mg/kg/injection, schedule: Q01DX009 (ip), vehicle: Klucel (hydroxypropylcellulose) (HPC) 93 % of control

CCc1c(Br)c(CC)c(CC)c(Br)c1CC
inactive: [8] 105 % of control | [4] 104 % of control | [10] 95 % of control | [5] 101 % of control | [12] 103 % of control | [7] 96 % of control

COc1ccc2nc(C(C)O)[nH]c2c1 (stereo not given)
inactive: [4] 89 % of control | [1] 103 % of control | [5] 93 % of control | [2] 101 % of control | [7] 89 % of control | [3] 96 % of control

Cc1nc(N)[nH]c(=O)c1CCCNS(=O)(=O)c1ccc(CN)cc1
inactive: endpoint: mean survival time, dose: 100.0 mg/kg/injection, schedule: Q01DX001 (ip), vehicle: saline 110 % of control | endpoint: mean survival time, dose: 200.0 mg/kg/injection, schedule: Q01DX001 (ip), vehicle: saline 101 % of control | endpoint: mean survival time, dose: 400.0 mg/kg/injection, schedule: Q01DX001 (ip), vehicle: saline 100 % of control

Nc1ccc2ccc(N)cc2c1
inactive: endpoint: median survival time, dose: 25.0 mg/kg/injection, schedule: Q01DX009 (ip), vehicle: saline with Tween-80 98 % of control | endpoint: median survival time, dose: 50.0 mg/kg/injection, schedule: Q01DX009 (ip), vehicle: saline with Tween-80 100 % of control | endpoint: median survival time, dose: 100.0 mg/kg/injection, schedule: Q01DX009 (ip), vehicle: saline with Tween-80 100 % of control | endpoint: median survival time, dose: 200.0 mg/kg/injection, schedule: Q01DX009 (ip), vehicle: saline with Tween-80 105 % of control

CSc1ccc(O)c(C)c1
inactive: [1] 104 % of control | [5] 97 % of control | [2] 102 % of control | [3] 104 % of control

COC(=O)C1C(O)C(C)C(O)OC1C(C)C(O)C(C)/C=C\C=C(/C)C(=O)Nc1c(C)c(OC(C)=O)c2c(c1O)C(=O)C(C)=C1OCOC(/C(C)=C/C(C)=O)=C12 (stereo not given)
inactive: endpoint: mean survival time, dose: 100.0 mg/kg/injection, schedule: Q01DX009 (ip), vehicle: saline 97 % of control | endpoint: mean survival time, dose: 200.0 mg/kg/injection, schedule: Q01DX009 (ip), vehicle: saline 101 % of control

CCCCCCCCCCCCCCCCCCSC1=CC(=O)C(OC)=C(OC)C1=O
inactive: endpoint: mean survival time, dose: 3.13 mg/kg/injection, schedule: Q01DX009 (ip), vehicle: Klucel (hydroxypropylcellulose) (HPC) 90 % of control | endpoint: mean survival time, dose: 6.25 mg/kg/injection, schedule: Q01DX009 (ip), vehicle: Klucel (hydroxypropylcellulose) (HPC) 88 % of control | [14] 94 % of control

O=S(=O)(/N=C1\c2ccccc2/C(=N\S(=O)(=O)c2ccccc2)C2C3C=CC(C3)C12)c1ccccc1 (stereo not given)
inactive: endpoint: mean survival time, dose: 25.0 mg/kg/injection, schedule: Q01DX001 (ip), vehicle: saline sonified 107 % of control | [16] 102 % of control | [13] 101 % of control

C=Cn1cnc2c(N)ncnc21 (tested in a mixture with another compound)
inactive: endpoint: mean survival time, dose: 12.5 mg/kg/injection, schedule: Q01DX005 (ip), vehicle: water 101 % of control | endpoint: mean survival time, dose: 25.0 mg/kg/injection, schedule: Q01DX005 (ip), vehicle: water 104 % of control | endpoint: mean survival time, dose: 50.0 mg/kg/injection, schedule: Q01DX005 (ip), vehicle: water 101 % of control | endpoint: mean survival time, dose: 100.0 mg/kg/injection, schedule: Q01DX005 (ip), vehicle: water 101 % of control | endpoint: mean survival time, dose: 200.0 mg/kg/injection, schedule: Q01DX005 (ip), vehicle: water 104 % of control

NCCCN1CCN(c2ccccc2)CC1
inactive: [9] 92 % of control | [11] 92 % of control

COC1C(O)C(C)OC(OC2CC(O)C3(C)C(CCC4C3CCC3(C)C(C5=CC(=O)OC5)CCC43O)C2)C1O (stereo not given) (tested in a mixture with another compound)
inactive: [16] 87 % of control

c1cc(OCC2CO2)ccc1OCC1CO1 (stereo not given)
inactive: endpoint: mean survival time, dose: 25.0 mg/kg/injection, schedule: Q01DX009 (ip), vehicle: Klucel (hydroxypropylcellulose) (HPC) 110 % of control | [14] 107 % of control | [15] 113 % of control

Cc1cccc(C)c1NC(=O)c1ccccc1O
inactive: [4] 98 % of control | [1] 101 % of control | [5] 97 % of control | [2] 96 % of control | [7] 100 % of control | [3] 102 % of control

C=NNC(=O)c1ccncc1
inactive: [4] 100 % of control | [5] 101 % of control | [7] 95 % of control

Cc1ccc(S(=O)(=O)SC(Cl)(Cl)Cl)cc1
inactive: endpoint: mean survival time, dose: 12.5 mg/kg/injection, schedule: Q01DX009 (ip), vehicle: saline 94 % of control | endpoint: mean survival time, dose: 25.0 mg/kg/injection, schedule: Q01DX009 (ip), vehicle: saline 102 % of control
